Measurements reported in paper PMC10786919, “Design-rules for stapled peptides with in vivo activity and their application to Mdm2/X antagonists” (Nature Communications, 2024).
Values after ≈ are worked out from the molar mass of the structure shown. Positions of bridges follow the written chain, without caps; N, C: chain ends. Non-standard residues stand in square brackets, D forms with d. Residues, ends and D or L forms follow the SMILES beside them. Lys(N3) = [N-]=[N+]=NCCCC[C@H](N)C(=O)O; R8 = C=CCCCCCC[C@@](C)(N)C(=O)O; Cba = N[C@@H](CC1CCC1)C(=O)O; S5 = C=CCCC[C@](C)(N)C(=O)O; βAla = NCCC(=O)O

Key:
[1] = Lactate dehydrogenase (LDH) release assay; type: cell-based
Method in brief: (§1)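 Membrane damage measured as lactate dehydrogenase release (CytoTox-ONE kit) from p53-responsive β-lactamase reporter HCT116 cells plated at 8000 per well. Final DMSO 0.5%; geometric mean reported from a minimum of three biological replicates.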

[2] = Solubility assay (kinetic solubility, PBS pH 7); type: physicochemical; conditions: pH 7, PBS; for solubility kinetic: pH 7, aqueous buffer, kinetic from dmso stock, read-out: Solubility
Method: The standard reference solutions were prepared by diluting the 10 mM stock in 10:80:10 solution of acetonitrile:methanol:DMSO to 100 µM.
The solubility value is calculated by the following equation:
Solubility [µM] = (Peak area of sample/ Peak area of standard) (Standard concentration)

in vitro = conditions: Nanoclick permeability assay EC50
Source text: Further, there have been several literature reports[18]–[20] that highlight that the combination of hydrophobic character and positive charge can result in mast cell degranulation (MCD), a potentially fatal condition[18]–[20]. […] The NanoClick assay[22] determines permeability of azide-labeled peptides by combining intracellular copper-free click chemistry with NanoBRET technology. Specifically, if an azido-peptide achieves cytosolic exposure, it will react with a cyclooctyne-decorated Halotag construct that is fused with nanoluciferase. This reaction blocks the click labelling of a subsequently added azido-labeled acceptor dye, thus decreasing the NanoBRET signal in a manner that is target-binding agnostic.
This assay was previously described in detail. The assay was performed in 384-well white assay plates (PerkinElmer CUSG03874) using assay-ready frozen cells that had been transiently transfected with the NanoLuc-HaloTag vector that were thawed at plated in complete media at a density of 6000 cells/ well and incubated at 37 °C 5% CO2 overnight. DIBAC-CA was diluted in assay buffer (OptiMem without phenol red + 1% FBS) and added to cells at a final concentration of 3 μM and incubated at 37 °C 5% CO2 for 1 h. Cells were subsequently centrifuged using a BlueWasher instrument (Blue Cat Bio) to remove the DIBAC-CA solution and washed two times with HBSS (Ca2 + , Mg2 + ). A volume of 30 μL of assay buffer was added back to cell plates. Peptides were serially diluted 4-fold in DMSO with a Hamilton Star apparatus and then delivered into assay plates with an acoustic liquid handler Labcyte ECHO (300 nl, 1% DMSO in-well concentration). After incubating cells with peptide for the desired time (4 or 18 h), the HaloTag ligand, NanoBret618-azide, was added to each well at a final concentration of 10 μM. […] Following addition of NanoBRET Nano-Glo Substrate, donor emission (450 nm) and acceptor emission (610 nm) were measured using an Envision instrument (PerkinElmer).

[3] = Experimental LogD (partition coefficient); conditions: for logD: not stated, Partition Coeff LogD
HCT116 cells = experiment: Lactate dehydrogenase (LDH) release assay; type: cell-based
Method in brief: as §1

Structure (SMILES) | EC50 ([1]; LDH: Cytotoxicity assay EC50) [µM] | solubility kinetic [2] [µM] | cell entry EC50 (in vitro) [µM] | logD [3] | EC50 ([1]; LDH: Cytotoxicity assay: EC50) [µM] | LDH: Cytotoxicity assay: % Effect (HCT116 cells) [%] | Solubility [2] | Partition Coeff LogD [3]
CC(=O)N[C@@H](CCCCN=[N+]=[N-])C(=O)NCCC(=O)N[C@@H](CC(C)C)C(=O)N[C@H](C(=O)N[C@@H](Cc1ccccc1)C(=O)N[C@]1(C)CCCCCCC=CCCC[C@@](C)(C(=O)N2CCC[C@H]2C(=O)N2CCC[C@H]2C(=O)N2CCC[C@H]2C(=O)N2CCC[C@H]2C(=O)N2CCC[C@H]2C(=O)N2CCC[C@H]2C(N)=O)NC(=O)[C@H](CC2CCC2)NC(=O)[C@H](CCC(N)=O)NC(=O)[C@H](C)NC(=O)[C@H](Cc2c[nH]c3ccccc23)NC(=O)[C@H](Cc2ccc(O)cc2)NC(=O)[C@H](CCC(=O)O)NC1=O)[C@@H](C)O [MP-093] | > 50.7 | 156 (≈ 363 µg/mL) | 1.38 | 2.28 |  |  |  | 
CC(C)C[C@@H]1NC(=O)[C@H](C)NC(=O)[C@H](Cc2c[nH]c3ccccc23)NC(=O)[C@H](Cc2ccc(O)cc2)NC(=O)[C@H](CCC(=O)O)NC(=O)[C@](C)(NC(=O)[C@H](Cc2ccccc2)NC(=O)[C@H](CO)NC(=O)[C@@H](NC(=O)[C@H](CO)NC(=O)CNC(=O)[C@H](CO)NC(=O)[C@H](CCCCN=[N+]=[N-])NC(=O)[C@@H](N)CCC(=O)O)[C@@H](C)O)CCCCCCC=CCCC[C@@](C)(C(N)=O)NC(=O)[C@H](CC(C)C)NC1=O [MP-0180] |  | 24 (≈ 46.4 µg/mL) | 0.495 | 2.21 | > 50.6 | 13.96 |  | 
CC(C)C[C@@H]1NC(=O)[C@H](C)NC(=O)[C@H](Cc2c[nH]c3ccccc23)NC(=O)[C@H](Cc2ccc(O)cc2)NC(=O)[C@H](CCC(=O)O)NC(=O)[C@](C)(NC(=O)[C@H](Cc2ccccc2)NC(=O)[C@H](CO)NC(=O)[C@@H](NC(=O)[C@H](CO)NC(=O)CNC(=O)[C@H](CO)NC(=O)[C@H](CCCCN=[N+]=[N-])NC(=O)[C@H](CCC(=O)O)NC(=O)[C@@H](N)CCC(=O)O)[C@@H](C)O)CCCCCCC=CCCC[C@@](C)(C(N)=O)NC(=O)[C@H](CC(C)C)NC1=O [MP-0181] (H-EE[Lys(N3)]SGSTSF[R8]EYWALL[S5]-NH2; staple 10-17) |  | 106 (≈ 219 µg/mL) | 2.07 | 2.05 | > 50.6 | 9.12 |  | 
CC[C@H](C)[C@H](NC(=O)[C@H](CC(C)C)NC(=O)[C@H](Cc1ccccc1)NC(=O)[C@@H](N)Cc1ccccc1)C(=O)N1CCC[C@H]1C(=O)N[C@@H](CCCCN)C(=O)NCC(=O)N[C@@H](CCCNC(=N)N)C(=O)N[C@@H](CCCNC(=N)N)C(=O)N[C@@H](CCCNC(=N)N)C(=O)N[C@@H](CCCNC(=N)N)C(=O)N[C@@H](CCCNC(=N)N)C(=O)N[C@@H](CCCNC(=N)N)C(=O)N[C@@H](CCCNC(=N)N)C(=O)N[C@@H](CCCNC(=N)N)C(=O)N[C@@H](CCCNC(=N)N)C(=O)N[C@@H](CCCCN=[N+]=[N-])C(=O)NCCC(=O)N[C@@H](CC(C)C)C(=O)N[C@H](C(=O)N[C@@H](Cc1ccccc1)C(=O)N[C@]1(C)CCCCCCC=CCCC[C@@](C)(C(=O)N[C@@H](CO)C(=O)N[C@@H](C)C(=O)N[C@@H](C)C(N)=O)NC(=O)[C@H](CC2CCC2)NC(=O)[C@H](CCC(N)=O)NC(=O)[C@H](C)NC(=O)[C@H](Cc2c[nH]c3ccccc23)NC(=O)[C@H](Cc2ccc(O)cc2)NC(=O)[C@H](CCC(=O)O)NC1=O)[C@@H](C)O [MP-656] (H-FFLIPKGRRRRRRRRR[Lys(N3)][βAla]LTF[R8]EYWAQ[Cba][S5]SAA-NH2; staple 22-29) |  |  | 0.544 |  |  |  | Poorly Behaved | Poorly Behaved
CC(=O)N[C@@H](CCC(=O)O)C(=O)N[C@@H](CCC(=O)O)C(=O)N[C@@H](CCCCN=[N+]=[N-])C(=O)NCCCCCC(=O)N[C@H](C(=O)N[C@@H](CO)C(=O)N[C@@H](Cc1ccccc1)C(=O)N[C@]1(C)CCCCCCC=CCCC[C@@](C)(C(N)=O)NC(=O)[C@H](CC(C)C)NC(=O)[C@H](CC(C)C)NC(=O)[C@H](C)NC(=O)[C@H](Cc2c[nH]c3ccccc23)NC(=O)[C@H](Cc2ccc(O)cc2)NC(=O)[C@H](CCC(=O)O)NC1=O)[C@@H](C)O [MP-661] | > 50 | 27 (≈ 53.7 µg/mL) | 0.546 | 2.02 |  |  |  | 
CC(=O)N[C@@H](CCC(=O)O)C(=O)N[C@@H](CCC(=O)O)C(=O)N[C@@H](CCC(=O)O)C(=O)N[C@@H](CCCCN=[N+]=[N-])C(=O)NCCC(=O)N[C@@H](CC(C)C)C(=O)N[C@H](C(=O)N[C@@H](Cc1ccccc1)C(=O)N[C@]1(C)CCCCCCC=CCCC[C@@](C)(C(=O)N[C@@H](CCC(=O)O)C(=O)N[C@@H](CC(N)=O)C(=O)N[C@@H](Cc2ccccc2)C(N)=O)NC(=O)[C@H](CC2CCC2)NC(=O)[C@H](CCC(N)=O)NC(=O)[C@H](C)NC(=O)[C@H](Cc2c[nH]c3ccccc23)NC(=O)[C@H](Cc2ccc(O)cc2)NC(=O)[C@H](CCC(=O)O)NC1=O)[C@@H](C)O [MP-763] (Ac-EEE[Lys(N3)][βAla]LTF[R8]EYWAQ[Cba][S5]ENF-NH2; staple 9-16) |  | 156 (≈ 393 µg/mL) | 1.14 | 1.86 | > 50.7 |  |  | 
C[C@H](NC(=O)[C@H](C)NC(=O)[C@H](C)NC(=O)[C@]1(C)CCCC=CCCCCCC[C@@](C)(NC(=O)[C@H](Cc2ccccc2)NC(=O)[C@@H](NC(=O)[C@H](C)NC(=O)CCNC(=O)[C@H](CCCCN=[N+]=[N-])NC(=O)[C@H](C)NC(=O)[C@H](C)NC(=O)[C@H](CCCNC(=N)N)NC(=O)[C@H](CCCNC(=N)N)NC(=O)[C@H](CO)NC(=O)[C@H](CCCNC(=N)N)NC(=O)[C@H](CO)NC(=O)[C@H](CCCNC(=N)N)NC(=O)CN)[C@@H](C)O)C(=O)N[C@@H](C)C(=O)N[C@@H](Cc2ccc(O)cc2)C(=O)N[C@@H](Cc2c[nH]c3ccccc23)C(=O)N[C@@H](C)C(=O)N[C@@H](C)C(=O)N[C@@H](CC2CCC2)C(=O)N1)C(N)=O [MP-878] (H-GRSRSRRAA[Lys(N3)][βAla]ATF[R8]AYWAA[Cba][S5]AAA-NH2; staple 15-22) |  |  | 2.1 | 2.81 |  |  | Poorly Behaved | 
CC(C)C[C@@H]1NC(=O)[C@H](C)NC(=O)[C@H](Cc2c[nH]c3ccccc23)NC(=O)[C@H](Cc2ccc(O)cc2)NC(=O)[C@H](CCC(=O)O)NC(=O)[C@](C)(NC(=O)[C@H](Cc2ccccc2)NC(=O)[C@H](CO)NC(=O)[C@@H](NC(=O)[C@H](CO)NC(=O)CNC(=O)[C@H](CO)NC(=O)[C@H](CCCCN=[N+]=[N-])NC(=O)[C@H](CCC(=O)O)NC(=O)[C@H](CCC(=O)O)NC(=O)[C@@H](N)CCC(=O)O)[C@@H](C)O)CCCCCCC=CCCC[C@@](C)(C(N)=O)NC(=O)[C@H](CC(C)C)NC1=O [MP-948] (H-EEE[Lys(N3)]SGSTSF[R8]EYWALL[S5]-NH2; staple 11-18) | > 50 | 112 (≈ 245 µg/mL) | > 10 | 1.48 |  |  |  | 
CC(C)C[C@@H]1NC(=O)[C@H](C)NC(=O)[C@H](Cc2c[nH]c3ccccc23)NC(=O)[C@H](Cc2ccc(O)cc2)NC(=O)[C@H](CCC(=O)O)NC(=O)[C@](C)(NC(=O)[C@H](Cc2ccccc2)NC(=O)[C@H](CO)NC(=O)[C@@H](NC(=O)[C@H](CO)NC(=O)CNC(=O)[C@H](CO)NC(=O)[C@H](CCCCN=[N+]=[N-])NC(=O)[C@H](CCC(=O)O)NC(=O)[C@H](CCC(=O)O)NC(=O)[C@@H](N)CCC(=O)O)[C@@H](C)O)CCCCCCC=CCCC[C@@](C)(C(=O)N[C@@H](CCC(=O)O)C(=O)N[C@@H](CC(N)=O)C(N)=O)NC(=O)[C@H](CC(C)C)NC1=O [MP-949] (H-EEE[Lys(N3)]SGSTSF[R8]EYWALL[S5]EN-NH2; staple 11-18) | > 50 | 104 (≈ 253 µg/mL) | 4.35 | 1.66 |  |  |  | 
CC(C)C[C@@H]1NC(=O)[C@H](C)NC(=O)[C@H](Cc2c[nH]c3ccccc23)NC(=O)[C@H](Cc2ccc(O)cc2)NC(=O)[C@H](CCC(=O)O)NC(=O)[C@](C)(NC(=O)[C@H](Cc2ccccc2)NC(=O)[C@H](CO)NC(=O)[C@@H](NC(=O)[C@H](CO)NC(=O)CNC(=O)[C@H](CO)NC(=O)[C@@H](N)CCCCN=[N+]=[N-])[C@@H](C)O)CCCCCCC=CCCC[C@@](C)(C(=O)N[C@@H](CCC(=O)O)C(=O)N[C@@H](CCC(=O)O)C(=O)N[C@@H](CCC(=O)O)C(N)=O)NC(=O)[C@H](CC(C)C)NC1=O [MP-951] (H-[Lys(N3)]SGSTSF[R8]EYWALL[S5]EEE-NH2; staple 8-15) | > 50 | 119 (≈ 261 µg/mL) | 2.15 | 1.94 |  |  |  | 
